In publication PMC12727497, “Inhibition of IRAK4 by microbial trimethylamine blunts metabolic inflammation and ameliorates glycemic control” (Nature Metabolism, 2025):
pKd: −log10 of the molar value.

Molecular target: interleukin-1 receptor-associated kinase 4 (IRAK4) (Homo sapiens, UniProt Q9NWZ3)
Test: biochemical

interleukin-1 receptor-associated kinase 4 (IRAK4), sequence (Q9NWZ3 whole entry): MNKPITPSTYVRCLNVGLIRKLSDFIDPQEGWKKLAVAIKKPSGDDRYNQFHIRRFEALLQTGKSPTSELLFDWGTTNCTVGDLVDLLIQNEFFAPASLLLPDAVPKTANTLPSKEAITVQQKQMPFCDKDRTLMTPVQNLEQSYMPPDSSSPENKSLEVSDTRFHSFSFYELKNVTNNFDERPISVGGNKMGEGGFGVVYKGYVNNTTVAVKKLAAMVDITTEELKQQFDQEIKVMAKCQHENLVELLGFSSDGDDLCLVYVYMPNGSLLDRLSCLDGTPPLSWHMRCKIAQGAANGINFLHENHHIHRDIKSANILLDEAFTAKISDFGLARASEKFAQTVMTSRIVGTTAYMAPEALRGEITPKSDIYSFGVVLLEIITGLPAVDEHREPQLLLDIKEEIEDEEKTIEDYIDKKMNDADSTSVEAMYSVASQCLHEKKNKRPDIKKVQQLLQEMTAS

CN(C)C [TMA, trimethylamine]
pKd: 7.85
